This note sets out measurements from US11446287B2, “Compounds and methods for EP300 or CBP modulation and indications therefor” (Opna Immuno-Oncology SA, priority 2019, dated 2022).

The structures appear in SMILES notation.

The target of this test is T1, Recombinant human EP300 containing the bromodomain (EP300-BD (1040-1161)) (Homo sapiens, UniProt Q09472).
T1 construct: Recombinant human EP300 bromodomain (EP300-BD (1040-1161)); made in house; host or cells: E. coli BL21-CodonPlus (DE3), modified pET vector
T1 sequence (Q09472 1040-1161): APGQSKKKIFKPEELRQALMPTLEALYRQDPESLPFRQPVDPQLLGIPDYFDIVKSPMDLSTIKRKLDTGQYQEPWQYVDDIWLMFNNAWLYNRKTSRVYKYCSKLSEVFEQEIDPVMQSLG
Put plainly: EP300 Alphascreen binding assay. The protocol: EP300 Alphascreen Binding Assay
Binding of compounds of Formula (I) with EP300 was assessed using Alphascreen™ binding assay. The inhibition of the interaction between the EP300 bromodomain and its acetylated target protein was measured quantitatively using recombinant EP300 protein, an acetylated Histone 3 peptide and AlphaScreen™ technology. In absence of inhibition of the EP300 protein bound to AlphaScreen™ nickel chelate acceptor beads can interact with the acetylated Histone 3 peptide which is immobilized by the AlphaScreen™ Streptavidin coated beads. This interaction brings donor and acceptor beads in proximity. The close proximity allows the singlet oxygen produced by laser excitation of the donor beads to reach the acceptor beads and generate a luminescence signal. EP300 inhibitors result in a decrease in the proximity signal through an inhibition of the EP300—acetylated peptide interaction.
Recombinant human EP300 containing the bromodomain (EP300-BD (1040-1161)) was prepared and purified as described in protein expression and purification session. The peptide is human Histone H345-64K56Ac-Biotin (Anaspec CA, USA).
Protocol for EP300 assay: All components were prepared in buffer composed of 50 mM HEPES pH 7.5, 50 mM NaCl, 0.01% BSA, 0.01% Triton X-100, 2 mM DTT. Test compounds and DMSO vehicle were diluted 1:50 in buffer and a 4 μL volume is transferred to an Alphaplate. 5.5 μL of EP300 protein and 5.5 μL of peptide were added to wells containing 4 μL of various concentrations of test compounds of Formula (I) or DMSO vehicle in an Alphaplate (PerkinElmer GA, USA) and incubated for 1 hour at room temperature. 5 μL donor and acceptor bead mixture was then added with final concentrations of 7.5 μg/ml. 60 minutes after bead addition, Alpha signal is read on the Envision spectrometer (λEx 680 nm, λEm 520-620 nm). Final concentrations of bromodomain proteins and peptide are as shown below.
All data were normalized to the mean of 16 high and 16 low control wells on each plate. A four parameter curve fit of the following formula was then applied: Y=A+((B−A)/(1+((C/x)^D))) Where ‘A’ is the minimum, ‘B’ is the maximum, ‘C’ is the IC50 and ‘D’ is the Hill slope. Protein Expression and Purification
Recombinant human EP300 bromodomain (EP300-BD (1040-1161)) was expressed in E. coli cells (in a modified pET vector) with an N-terminal six-His tag and purified using a combination of both IMAC (Ni-affinity) and size exclusion chromatography steps.
Recombinant EP300 protein was expressed using the E. coli strain BL21-CodonPlus (DE3) (Agilent Technologies CA, USA). Cells were grown in Terrific Broth (TB) media to an OD600 of 0.7 at 37° C. at which temperature was reduced to 18° C., protein was induced with 1.0 mM isopropyl-β-D-thiogalactopyranoside (“IPTG”) for 20 hours and harvested by centrifugation at 8500×g for 20 minutes. Cells were re-suspended in 0.1M K2PO4 pH 8.0, 250 mM NaCl, 10% Glycerol, 0.75% NP-40, 25 mM Imidazole, with 0.2 mg/ml Lysozyme, 0.2 mM phenylmethanesulfonyl fluoride (“PMSF”), 25 μg/ml DNase I, incubated on ice for 30 minutes and lysed with a cell disruptor (MicroFluidics MA, USA). The lysate was clarified by centrifugation at 20,000×g for 1 hour. The protein was captured with Ni-NTA resin (Life Technologies, USA). Contaminating proteins were washed off with 50 mM HEPES pH 7.5, 500 mM NaCl, and 5% Glycerol. Following 3× wash steps, protein was eluted step wise using 10, 25, 50, 100, 150, and 250 mM Imidazole in 50 mM HEPES pH 7.5, 500 mM NaCl, and 5% glycerol. The protein was further purified using a size exclusion column (26/600 Superdex 200, GE Biosciences NJ, USA) in 10 mM HEPES pH 7.5, […].
(In general: Alpha assays give light when donor and acceptor beads are brought close together.)

As for `CCCOc1cc(C(=O)O)ccc1-c1cn([C@@H](C)c2ccccn2)c2ncc(-c3c(C)noc3C)cc12` [P-0113, (S)-4-(5-(3,5-dimethylisoxazol-4-yl)-1-(1-(pyridin-2-yl)ethyl)-1H-pyrrolo[2,3-b]pyridin-3-yl)-3-propoxybenzoic acid], the IC50 was 0.0001 to 1 µM.

`CCOc1cc(C(=O)O)ccc1-c1cn([C@@H](C)c2ccccn2)c2ncc(-c3c(C)noc3C)cc12` [P-0114, (S)-4-(5-(3,5-dimethylisoxazol-4-yl)-1-(1-(pyridin-2-yl)ethyl)-1H-pyrrolo[2,3-b]pyridin-3-yl)-3-ethoxybenzoic acid]: the IC50 was 0.0001 to 1 µM.

On to `Cc1noc(C)c1-c1cnc2c(c1)c(-c1ccc(C(=O)O)cc1OCC(F)(F)F)cn2[C@@H](C)c1ccccn1` [P-0115, (S)-4-(5-(3,5-dimethylisoxazol-4-yl)-1-(1-(pyridin-2-yl)ethyl)-1H-pyrrolo[2,3-b]pyridin-3-yl)-3-(2,2,2-trifluoroethoxy)benzoic acid], for which the IC50 was in the range of 0.0001 to 1 µM.

`Cc1noc(C)c1-c1cnc2c(c1)c(-c1ccc(C(=O)O)cc1C(F)(F)F)cn2[C@@H](C)c1ccccn1` [P-0116, (S)-4-(5-(3,5-dimethylisoxazol-4-yl)-1-(1-(pyridin-2-yl)ethyl)-1H-pyrrolo[2,3-b]pyridin-3-yl)-3-(trifluoromethyl)benzoic acid]: the IC50 was 0.0001 to 1 µM.

As to `CCCOc1cc(C(=O)O)cc(OCCC)c1-c1cn([C@@H](C)c2ccccn2)c2ncc(-c3c(C)noc3C)cc12` [P-0117, (S)-4-(5-(3,5-dimethylisoxazol-4-yl)-1-(1-(pyridin-2-yl)ethyl)-1H-pyrrolo[2,3-b]pyridin-3-yl)-3,5-dipropoxybenzoic acid], the IC50 fell in the range of 0.0001 to 1 µM.

For `Cc1noc(C)c1-c1cnc2c(c1)c(-c1c(OC(C)C)cc(C(=O)O)cc1OC(C)C)cn2[C@@H](C)c1ccccn1` [P-0118, (S)-4-(5-(3,5-dimethylisoxazol-4-yl)-1-(1-(pyridin-2-yl)ethyl)-1H-pyrrolo[2,3-b]pyridin-3-yl)-3,5-diisopropoxybenzoic acid], the IC50 lay in the range of 0.0001 to 1 µM.

As to `COc1cc(C(=O)O)cc(OC)c1-c1cn(C(C)c2ccccc2)c2cc(-c3c(C)noc3C)cnc12` (stereo not shown) [P-0119, 4-(6-(3,5-dimethylisoxazol-4-yl)-1-(1-phenylethyl)-1H-pyrrolo[3,2-b]pyridin-3-yl)-3,5-dimethoxybenzoic acid], the IC50 lay within 0.0001 to 1 µM.

In the case of `Cc1noc(C)c1-c1cnc2c(-c3ccccc3C(=O)O)cn(C(C)c3ccccc3)c2c1` (stereo not shown) [P-0120, 2-(6-(3,5-dimethylisoxazol-4-yl)-1-(1-phenylethyl)-1H-pyrrolo[3,2-b]pyridin-3-yl)benzoic acid], the IC50 lay in the range of 0.0001 to 1 µM.

Consider `Cc1noc(C)c1-c1cnc2c(C(=O)C3CCC3)cn(-c3c(Cl)cc(C(=O)O)cc3Cl)c2c1` [P-0121, 3,5-dichloro-4-(3-(cyclobutanecarbonyl)-6-(3,5-dimethylisoxazol-4-yl)-1H-pyrrolo[3,2-b]pyridin-1-yl)benzoic acid], for which the IC50 was 0.0001 to 1 µM.

Regarding `Cc1noc(C)c1-c1cnc2c(c1)c(-c1cccc(C(=O)O)n1)cn2C(C)c1ccccn1` (stereo not shown) [P-0122, 6-(5-(3,5-dimethylisoxazol-4-yl)-1-(1-(pyridin-2-yl)ethyl)-1H-pyrrolo[2,3-b]pyridin-3-yl)picolinic acid], the IC50 was 1 to 8 µM.

Regarding `Cc1noc(C)c1-c1cnc2c(c1)c(-c1ccc(C(=O)O)cn1)cn2C(C)c1ccccn1` (stereo not shown) [P-0123, 6-(5-(3,5-dimethylisoxazol-4-yl)-1-(1-(pyridin-2-yl)ethyl)-1H-pyrrolo[2,3-b]pyridin-3-yl)nicotinic acid], the IC50 is 0.0001 to 1 µM.

On to `Cc1noc(C)c1-c1cnc2c(c1)c(-c1cc(C(=O)O)ccn1)cn2C(C)c1ccccn1` (stereo not shown) [P-0124, 2-(5-(3,5-dimethylisoxazol-4-yl)-1-(1-(pyridin-2-yl)ethyl)-1H-pyrrolo[2,3-b]pyridin-3-yl)isonicotinic acid], for which the IC50 was 0.0001 to 1 µM.

Consider `Cc1noc(C)c1-c1cnc2c(c1)c(-c1ccc(F)c(C(=O)O)c1F)cn2[C@@H](C)c1ccccn1` [P-0125, (S)-3-(5-(3,5-dimethylisoxazol-4-yl)-1-(1-(pyridin-2-yl)ethyl)-1H-pyrrolo[2,3-b]pyridin-3-yl)-2,6-difluorobenzoic acid], for which the IC50 was in the range of 0.0001 to 1 µM.

With `Cc1noc(C)c1-c1cnc2c(c1)c(-c1ccnc(C(=O)O)n1)cn2C(C)c1ccccn1` (stereo not shown) [P-0126, 4-(5-(3,5-dimethylisoxazol-4-yl)-1-(1-(pyridin-2-yl)ethyl)-1H-pyrrolo[2,3-b]pyridin-3-yl)pyrimidine-2-carboxylic acid], the IC50 was in the range of 0.0001 to 1 µM.

Take `CCCOc1cc(C(=O)O)cc(OCCC)c1-n1cc(CC2CCC2)c2ncc(-c3c(C)noc3C)cc21` [P-0127, 4-(3-(cyclobutylmethyl)-6-(3,5-dimethylisoxazol-4-yl)-1H-pyrrolo[3,2-b]pyridin-1-yl)-3,5-dipropoxybenzoic acid]: the IC50 lay within 0.0001 to 1 µM.

With `Cc1noc(C)c1-c1cnc2c(Cc3cccc(Cl)c3)cn(-c3c(Cl)cc(C(=O)O)cc3Cl)c2c1` [P-0128, 3,5-dichloro-4-(3-(3-chlorobenzyl)-6-(3,5-dimethylisoxazol-4-yl)-1H-pyrrolo[3,2-b]pyridin-1-yl)benzoic acid], the IC50 fell in the range of 0.0001 to 1 µM.

`Cc1noc(C)c1-c1cnc2c(C(=O)c3cccc(OC(F)F)c3)cn(-c3c(Cl)cc(C(=O)O)cc3Cl)c2c1` [P-0129, 3,5-dichloro-4-(3-(3-(difluoromethoxy)benzoyl)-6-(3,5-dimethylisoxazol-4-yl)-1H-pyrrolo[3,2-b]pyridin-1-yl)benzoic acid]: the IC50 fell in the range of 0.0001 to 1 µM.

As to `Cc1noc(C)c1-c1cnc2c(CC3CCC3)cn(-c3ccc([N+](=O)[O-])cc3F)c2c1` [P-0130, 4-(3-(cyclobutylmethyl)-1-(2-fluoro-4-nitrophenyl)-1H-pyrrolo[3,2-b]pyridin-6-yl)-3,5-dimethylisoxazole], the IC50 lay within 8 to 1000 µM.

For `Cc1noc(C)c1-c1cnc2c(Cc3ccccc3Cl)cn(-c3c(Cl)cc(C(=O)O)cc3Cl)c2c1` [P-0131, 3,5-dichloro-4-(3-(2-chlorobenzyl)-6-(3,5-dimethylisoxazol-4-yl)-1H-pyrrolo[3,2-b]pyridin-1-yl)benzoic acid], the IC50 was 0.0001 to 1 µM.

Regarding `Cc1noc(C)c1-c1cnc2c(Cc3cccc(OCc4ccccc4)c3)cn(-c3c(Cl)cc(C(=O)O)cc3Cl)c2c1` [P-0132, 4-(3-(3-(benzyloxy)benzyl)-6-(3,5-dimethylisoxazol-4-yl)-1H-pyrrolo[3,2-b]pyridin-1-yl)-3,5-dichlorobenzoic acid], the IC50 was 0.0001 to 1 µM.

Regarding `Cc1noc(C)c1-c1cnc2c(C(=O)c3cccc(OCc4ccccc4)c3)cn(-c3c(Cl)cc(C(=O)O)cc3Cl)c2c1` [P-0133, 4-(3-(3-(benzyloxy)benzoyl)-6-(3,5-dimethylisoxazol-4-yl)-1H-pyrrolo[3,2-b]pyridin-1-yl)-3,5-dichlorobenzoic acid], the half-inhibitory concentration (IC50) was in the range of 0.0001 to 1 µM.

Take `COc1ccc(-n2cc(CC3CCC3)c3ncc(-c4c(C)noc4C)cc32)cn1` [P-0134, 4-(3-(cyclobutylmethyl)-1-(6-methoxypyridin-3-yl)-1H-pyrrolo[3,2-b]pyridin-6-yl)-3,5-dimethylisoxazole]: the IC50 was in the range of 1 to 8 µM.

As usually defined, the IC50 is the point on the concentration scale where inhibition reaches its midpoint.
